Source: PubChem BioAssay (NCI)
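Results reflect a 48-hour exposure of cells in 96-well plates to compound at five concentrations. GI50 is the concentration that inhibits growth by half. At the TGI there is no net growth.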

Columns and labels:
Assay in all cases: NCI-60 cell line screen, 48 h
CCRF-CEM leukemia = system: CCRF-CEM leukemia
LOX IMVI melanoma = system: LOX IMVI melanoma
M14 melanoma = system: M14 melanoma
MDA-N = system: MDA-N
NCI-H23 lung = system: NCI-H23 lung
NCI-H460 lung = system: NCI-H460 lung
SF-539 CNS = system: SF-539 CNS
SNB-19 CNS = system: SNB-19 CNS
U251 CNS = system: U251 CNS
K-562 leukemia = system: K-562 leukemia
RPMI-8226 leukemia = system: RPMI-8226 leukemia

SMILES | TGI (CCRF-CEM leukemia) | TGI (LOX IMVI melanoma) | TGI (M14 melanoma) | TGI (MDA-N) | TGI (NCI-H23 lung) | TGI (NCI-H460 lung) | TGI (SF-539 CNS) | TGI (SNB-19 CNS) | TGI (U251 CNS) | TGI (K-562 leukemia) | TGI (RPMI-8226 leukemia) | GI50 (CCRF-CEM leukemia) | GI50 (K-562 leukemia) | GI50 (LOX IMVI melanoma) | GI50 (M14 melanoma) | GI50 (NCI-H23 lung) | GI50 (NCI-H460 lung) | GI50 (SF-539 CNS) | GI50 (SNB-19 CNS) | GI50 (U251 CNS)
CN(C)C(=S)SCc1ccccc1 | > 100 µM | > 100 µM | > 100 µM | > 100 µM | > 100 µM | > 100 µM | > 100 µM | > 100 µM | > 100 µM |  |  |  |  |  |  |  |  |  |  | 
CCC(C)(C)c1ccc(Oc2cccc(C(=O)O)c2)cc1 | 68 µM | > 100 µM | > 100 µM | > 100 µM | > 100 µM | > 100 µM | > 100 µM | > 100 µM | > 100 µM | > 100 µM | 65.4 µM |  |  |  |  |  |  |  |  | 
C/C(=C\c1ccc2c(c1)OCO2)[N+](=O)[O-] | > 100 µM |  | 42.5 µM |  | 7.54 µM | > 100 µM | 9.24 µM | 6.98 µM |  | > 100 µM | > 100 µM |  |  |  |  |  |  |  |  | 
CCOC(=O)c1cc(Cl)ccc1OC(N)=O | > 100 µM | > 100 µM |  |  | > 100 µM | > 100 µM | > 100 µM | > 100 µM | > 100 µM | > 100 µM | > 100 µM |  |  |  |  |  |  |  |  | 
C(=N/Nc1ccccn1)/c1cccnc1 | > 100 µM | > 100 µM | > 100 µM | > 100 µM | > 100 µM | > 100 µM | > 100 µM | > 100 µM | > 100 µM | > 100 µM | > 100 µM |  |  |  |  |  |  |  |  | 
Cc1cccc(C(O)c2ccccn2)c1O (configuration not stated) | > 100 µM | > 100 µM |  | > 100 µM | > 100 µM | > 100 µM | > 100 µM | > 100 µM | > 100 µM | > 100 µM | > 100 µM |  |  |  |  |  |  |  |  | 
Nc1nc(Cl)nc2c1ncn2C1CCC(CO)O1 (configuration not stated) | > 100 µM | > 100 µM | > 100 µM | > 100 µM | > 100 µM | > 100 µM |  | > 100 µM | > 100 µM |  | > 100 µM |  |  |  |  |  |  |  |  | 
Clc1ccc(CSCc2ccc(Cl)cc2Cl)c(Cl)c1 | 51.7 µM | > 100 µM | > 100 µM | > 100 µM | > 100 µM | > 100 µM | > 100 µM | > 100 µM | > 100 µM | > 100 µM | 88.6 µM |  |  |  |  |  |  |  |  | 
N#CC(C#N)=Cc1ccc(-c2ccc(-c3nc4ccccc4s3)cc2)s1 | 62.9 µM | 23.5 µM | 96.2 µM |  | 52.9 µM | > 100 µM | 36.3 µM | > 100 µM | 31.9 µM | 57.4 µM |  | 21 µM | 17.8 µM | 8.5 µM | 29.3 µM | 18.1 µM | 26 µM | 18.3 µM | 30 µM | 14.9 µM
CC1=C/C(=C(/c2ccc(O)c(C)c2)c2ccccc2C(=O)O)C=CC1=O | 45.1 µM | 35.9 µM | 32.5 µM | 33.2 µM | 36.6 µM | > 100 µM | 35.2 µM | 32.2 µM | 32.1 µM | 44.7 µM | 46 µM |  |  |  |  |  |  |  |  | 
